Reference: PubChem BioAssay AID1918996 (Molecular Pharmacology Branch, DTP, NCI, 2023)

Test system: 349418-098-R-PDC complex spheroid growth
Assay: Anticancer human tumor 349418-098-R-PDC patient-derived lung adenocarcinoma cell line growth inhibition [AhR]
Conditions: for IC50: curve of first compound; for viability, T/C: stronger effect = lower value; active means viability on the fitted dose curve at most 10% of control; inactive means the rest
Procedure, shortened: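 Complex tumor spheroids co-cultured with HUVEC and human MSC stroma; AhR antagonists tested in combination with standard-of-care and investigational agents. Top concentration at or near clinical Cmax (else 10 microM), half-log dilutions; growth expressed as percent test/control.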

[1] = second compound 0.1 µM, first compound 0.0316 µM
[2] = second compound 0.1 µM, first compound 0.1 µM
[3] = second compound 0.1 µM, first compound 0.316 µM
[4] = second compound 0.1 µM, first compound 1 µM
[5] = second compound 0.1 µM, first compound 3.16 µM
[6] = second compound 0.1 µM, first compound 10 µM
[7] = second compound 0.316 µM, first compound 0.0316 µM
[8] = second compound 0.316 µM, first compound 0.1 µM
[9] = second compound 0.316 µM, first compound 0.316 µM
[10] = second compound 0.316 µM, first compound 1 µM
[11] = second compound 0.316 µM, first compound 3.16 µM
[12] = second compound 0.316 µM, first compound 10 µM
[13] = second compound 1 µM, first compound 0.0316 µM
[14] = second compound 1 µM, first compound 0.1 µM
[15] = second compound 1 µM, first compound 0.316 µM
[16] = second compound 1 µM, first compound 1 µM
[17] = second compound 1 µM, first compound 3.16 µM
[18] = second compound 1 µM, first compound 10 µM
[19] = second compound 3.16 µM, first compound 0.0316 µM
[20] = second compound 3.16 µM, first compound 0.1 µM
[21] = second compound 3.16 µM, first compound 0.316 µM
[22] = second compound 3.16 µM, first compound 1 µM
[23] = second compound 3.16 µM, first compound 3.16 µM
[24] = second compound 3.16 µM, first compound 10 µM
[25] = second compound 10 µM, first compound 0.0316 µM
[26] = second compound 10 µM, first compound 0.1 µM
[27] = second compound 10 µM, first compound 0.316 µM
[28] = second compound 10 µM, first compound 1 µM
[29] = second compound 10 µM, first compound 3.16 µM
[30] = second compound 10 µM, first compound 10 µM
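Further: spheroids exposed to agents for seven days before luminescence viability read.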
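Wherever viability, T/C is given: spheroids also contain HUVEC endothelial cells and human MSC stroma.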

COc1ccc([C@@H](O)c2cc(-c3ncnc4cc(N5CCOCC5)ccc34)c(F)cc2Cl)nn1 + CC(CO)NC(=O)c1cc(-c2ccc(Cl)cc2)nn(-c2cnn(C)c2)c1=O
1260 nM: IC50 (second compound 0.316 µM)
848 nM: IC50 (second compound 1 µM)
2060 nM: IC50 (second compound 0.1 µM)
375 nM: IC50 (second compound 10 µM)
inactive: viability, T/C [1] 81.3% | viability, T/C [2] 89.9% | viability, T/C [3] 62.5% | viability, T/C [4] 75.7% | viability, T/C [5] 35.3% | viability, T/C [6] 13.8% | viability, T/C [7] 89.3% | viability, T/C [8] 89.7% | viability, T/C [9] 87% | viability, T/C [10] 55.5% | viability, T/C [11] 25.4% | viability, T/C [12] 15.4% | viability, T/C [13] 96.9% | viability, T/C [14] 119% | viability, T/C [15] 97.1% | viability, T/C [16] 41% | viability, T/C [17] 41.2% | viability, T/C [18] 13.2% | viability, T/C [19] 66.2% | viability, T/C [20] 85.8% | viability, T/C [21] 64.8% | viability, T/C [22] 50.1% | viability, T/C [23] 30% | viability, T/C [24] 13.5% | viability, T/C [25] 53.6% | viability, T/C [26] 52.6% | viability, T/C [27] 53.3% | viability, T/C [28] 36.9% | viability, T/C [29] 17% | viability, T/C [30] 13.5%
1070 nM: IC50 (second compound 3.16 µM)

NS(=O)(=O)OCC1CC(n2ccc3c(NC4CCc5ccccc54)ncnc32)CC1O (stereo not given) + Cc1ccccc1N=Nc1ccc(NC(=O)c2ccnn2C)c(C)c1
inactive: viability, T/C [1] 96.6% | viability, T/C [2] 81.3% | viability, T/C [3] 46.1% | viability, T/C [4] 22.6% | viability, T/C [5] 11.4% | viability, T/C [6] 10.5% | viability, T/C [7] 75% | viability, T/C [8] 63.8% | viability, T/C [9] 39.2% | viability, T/C [10] 24.9% | viability, T/C [11] 11.8% | viability, T/C [13] 90.4% | viability, T/C [14] 71.1% | viability, T/C [15] 39% | viability, T/C [16] 23.5% | viability, T/C [17] 12% | viability, T/C [18] 10.1% | viability, T/C [19] 68.5% | viability, T/C [20] 58.1% | viability, T/C [21] 26.3% | viability, T/C [22] 20.2% | viability, T/C [23] 11.9% | viability, T/C [24] 9.47% | viability, T/C [25] 65.3% | viability, T/C [26] 38.9% | viability, T/C [27] 27.1% | viability, T/C [28] 18% | viability, T/C [29] 10.8%
221 nM: IC50 (second compound 1 µM)
287 nM: IC50 (second compound 0.1 µM)
active: viability, T/C [12] 10.2% | viability, T/C [30] 9.27%
196 nM: IC50 (second compound 0.316 µM)
63.7 nM: IC50 (second compound 10 µM)
131 nM: IC50 (second compound 3.16 µM)

COc1ccc([C@@H](O)c2cc(-c3ncnc4cc(N5CCOCC5)ccc34)c(F)cc2Cl)nn1 + Cc1cncc(-c2nc(NCCc3c[nH]c4ccccc34)c3ncn(C(C)C)c3n2)c1
3840 nM: IC50 (second compound 1 µM)
inactive: viability, T/C [1] 100% | viability, T/C [2] 101% | viability, T/C [3] 92.5% | viability, T/C [4] 88.8% | viability, T/C [5] 58.1% | viability, T/C [6] 16.8% | viability, T/C [7] 103% | viability, T/C [8] 94.7% | viability, T/C [9] 89.9% | viability, T/C [10] 93.3% | viability, T/C [11] 58.8% | viability, T/C [12] 14.1% | viability, T/C [13] 81% | viability, T/C [14] 79.7% | viability, T/C [15] 80.5% | viability, T/C [16] 68.2% | viability, T/C [17] 57.9% | viability, T/C [18] 19.4% | viability, T/C [19] 16.5% | viability, T/C [20] 16.7% | viability, T/C [21] 12.7% | viability, T/C [22] 12.5% | viability, T/C [23] 11.9% | viability, T/C [24] 9.7%
active: viability, T/C [25] 0.93% | viability, T/C [26] 0.92% | viability, T/C [27] 1.03% | viability, T/C [28] 1.37% | viability, T/C [29] 1.91% | viability, T/C [30] 3.18%
3970 nM: IC50 (second compound 0.316 µM)
< 31.6 nM: IC50 (second compound 3.16 µM) | IC50 (second compound 10 µM)
4010 nM: IC50 (second compound 0.1 µM)
